Experimental data taken from patent publication US20230285371A1 (THE SECOND XIANGYA HOSPITAL OF CENTRAL SOUTH UNIVERSITY, priority 2020, published 2023).
“And” between values parts separate entries of the source, which are not always exact repeats. Identical values can stand only once. Marks after values point to notes of the source that are not given here.

Experiments:
[1] = tested on: female NOD mice (type 1 diabetes induced by cyclophosphamide); assay: Prevention of cyclophosphamide-induced type 1 diabetes in NOD mice; type: in vivo; settings: cyclophosphamide-induced T1D
From the text: (§1) I. Materials and Methods • 1. Mice: The most widely used spontaneous type 1 diabetes mouse model for the study of type 1 diabetes—NOD mice were selected. Since the incidence rate of spontaneous type 1 diabetes in female NOD mice is much higher than that in male mice, female NOD mice were used for experiments in the present invention. The female NOD mice of the present invention were purchased from Shanghai Model Organisms Center, Inc. • 2. Preparation of medicine: Carboxymethylcellulose (CMC) was used as the solvent. […] Injection of cyclophosphamide: 300 mg/kg body weight of cyclophosphamide was injected into NOD mice so as to rapidly induce the onset of type 1 diabetes. • 5. Measurement of blood sugar: About 1 mm of the tail tip of the mice was cut off, the first drop of blood was wiped off with gauze, then the second drop of blood flew out naturally, which was drawn with a blood sugar test strip, and the reading was recorded. It can be diagnosed type 1 diabetes when two consecutive blood sugar readings were both >250 mg/dl. • 6. […] After 4 weeks of gavage, each mouse was injected with cyclophosphamide to induce the onset of type 1 diabetes, and the incidence rate of type 1 diabetes in the mice was observed and counted.

STAT4 and p-STAT4 = assay: STAT4 phosphorylation in IL-12-treated Naive CD4+ T cells, western blot; type: cell-based, C57BL/6J mice; settings: IL-12, 48 hours
Protocol: The cells were collected after 48 hours to extract proteins for western blot (WB) to detect the protein levels of STAT4 and p-STAT4.

[2] = tested on: Th1 cell marker genes (Tbet and IFNγ) and pro-inflammatory cytokines (IL-1β, IL-6 and TNF-α) in the pancreas; assay: Gene expression in pancreas of NOD mice, RT-PCR; type: in vivo
From the text: (§2) From the age of 10 weeks, the mice were gavaged for 4 weeks, and injected with cyclophosphamide after the gavage for two weeks to induce the onset of the disease.

[3] = tested on: female NOD mice (spontaneous type 1 diabetes); assay: Prevention of spontaneous type 1 diabetes in NOD mice; type: in vivo; settings: spontaneous T1D
From the text: as §1

Naive CD4+ T cells = assay: Cytotoxicity to T cells: cell count after 48 hours; type: cell-based, C57BL/6J mice
NOD mice (insulitis) = settings: gavage once a day for 4 weeks from 8 weeks of age, nondiabetic mice, HE staining
[4] = tested on: differentiation of Th1 cells induced by IL-12 (Naive CD4+ T cells); assay: In vitro inhibition assay: IL-12-induced Th1 differentiation, flow cytometry; type: cell-based, C57BL/6J mice; settings: for Th1 (%) Average / Th1 (%): IL-12, 48 hours; for Th1 (%) Average: average of 3 wells; for Th1 (%): individual parallel wells
Protocol: C57BL/6J mice were sacrificed, the spleen was taken and disrupted in PBS containing 2% fetal bovine serum (FBS). The cell suspension was filtered through a 70 μm nylon filter to remove tissue debris. The obtained cell suspension was centrifuged at 300 g for 10 min, and the cells were resuspended in PBS containing 2% fetal bovine serum (FBS) to maintain a cell concentration of 1×10^8 nucleated cells/mL. Naive CD4+ T cells were extracted with the EasySep™ Mouse Naive CD4+ T Cell Isolation Kit ([…] Technologies), and the extracted Naive CD4+ T cells were cultured in RPMI-1640 medium (Gibco) containing 10% fetal bovine serum (Gibco) and 1% penicillin/streptomycin (Gibco).
The cells were collected after 48 hours, and subjected to flow cytometry to detect the proportion of Th1 cells.

[5] = tested on: CD4+ T cell subsets (Th1, Th2, Th17 and Treg) in the pancreas; assay: CD4+ T cell subsets in pancreas of NOD mice, flow cytometry; type: in vivo
From the text: as §2

[6] = Sorafenib group vs solvent group
[7] = relative to vehicle, individual mice
[8] = gavage 4 weeks, cyclophosphamide after 2 weeks, individual values

Sorafenib
Survival rate (%) ([1]; 10 mg/kg gavage for 7 weeks, day 105): 94.12% | Survival rate (%) ([1]; 10 mg/kg gavage for 7 weeks, day 112): 88.24% | Survival rate (%) ([1]; 10 mg/kg gavage for 7 weeks, day 119): 82.35% | Survival rate (%) ([1]; 10 mg/kg gavage for 7 weeks, day 126): 76.47% | Survival rate (%) ([1]; 10 mg/kg gavage for 7 weeks, day 140, P<0.05 vs vehicle (35.71)): 76.47* % | Survival rate (%) ([1]; 10 mg/kg gavage once a day from 8 weeks of age for 7 weeks, cyclophosphamide 300 mg/kg after 4 weeks, n=17, day 0): 100% | preventive effect still existed after the gavage was stopped, lasted to ([1]; gavage stopped after 7 weeks): 20 weeks | incidence rate of type 1 diabetes ([1]; more than half of the CMC group developed T1D): 24% | effect on phosphorylation of STAT4 (STAT4 and p-STAT4): can inhibit the phosphorylation of STAT4 | IFNγ gene expression level in pancreas, Average ([2]; P<0.05 vs vehicle (1)): 0.27* | Il-1β gene expression level in pancreas, Average ([2]; P<0.05 vs vehicle (1)): 0.37* | TNFα gene expression level in pancreas, Average ([2]; P<0.05 vs vehicle (1)): 0.27* | Tbet gene expression level in pancreas, Average ([2]; P<0.1 vs vehicle (1.04)): 0.44^+ | gene expression levels of Th1 cell marker genes (Tbet and IFNγ) and pro-inflammatory cytokines (IL-1β, IL-6 and TNF-α) in the pancreas [2, 6]: significantly reduced | IFNγ gene expression level in pancreas [2, 7]: 0.16 and 0.07 and 0.58 | IL-6 gene expression level in pancreas [2, 7]: 0.64 and 0.12 | Il-1β gene expression level in pancreas [2, 7]: 0.48 and 0.18 and 0.46 | TNFα gene expression level in pancreas [2, 7]: 0.18 and 0.07 and 0.55 | Tbet gene expression level in pancreas [2, 7]: 0.27 and 0.2 and 0.86 | IL-6 gene expression level in pancreas, Average ([2]; vehicle 1): 0.38 | Survival rate (%) ([3]; 10 mg/kg gavage once a day for 12 weeks, day 98): 91.30% | Survival rate (%) ([3]; 10 mg/kg gavage once a day for 12 weeks, day 119): 73.91% | Survival rate (%) ([3]; 10 mg/kg gavage once a day for 12 weeks, day 140): 65.22% | Survival rate (%) ([3]; 10 mg/kg gavage once a day for 12 weeks, day 154): 60.87% | Survival rate (%) ([3]; 10 mg/kg gavage once a day for 12 weeks, day 168): 52.17% | Survival rate (%) ([3]; 10 mg/kg gavage once a day for 12 weeks, day 224, P<0.1 vs vehicle (25)): 52.17^+ % | Survival rate (%) ([3]; 10 mg/kg gavage once a day from 8 weeks of age for 12 weeks, n=23, day 0): 100% | incidence rate of type 1 diabetes ([3]; at 32 weeks of age, CMC group 75%): 48% | Th0 (×10^4) Average (Naive CD4+ T cells; Sorafenib 1 μg/ml, 0 μg/ml control 9.47): 9.33 ×10^4 | Th0 (×10^4) Average (Naive CD4+ T cells; Sorafenib 2 μg/ml): 8.1 ×10^4 | Th0 (×10^4) Average (Naive CD4+ T cells; Sorafenib 4 μg/ml): 8 ×10^4 | insulitis compared with the CMC group (NOD mice (insulitis)): significantly improved | effect on IL-12-induced Th1 differentiation ([4]; 0, 1, 2, 4 μg/ml, 48 hours): inhibit IL-12-induced Th1 differentiation in a dose-dependent manner | Th1 (%) Average ([4]; Sorafenib 1 μg/ml, 0 μg/ml control 85.27): 80.43% | Th1 (%) ([4]; Sorafenib 1 μg/ml): 77.9% and 76% and 87.4% | Th1 (%) Average ([4]; Sorafenib 2 μg/ml, P<0.01 vs 0 μg/ml): 68.53** % | Th1 (%) ([4]; Sorafenib 2 μg/ml): 67.8% and 68.5% and 69.3% | Th1 (%) Average ([4]; Sorafenib 4 μg/ml, P<0.001 vs 0 μg/ml): 15.66*** % | Th1 (%) ([4]; Sorafenib 4 μg/ml): 24.9% and 12.9% and 9.17% | proportion of Th1 cells in the pancreas [5, 6]: significantly reduced | proportions of other T cell subsets in the pancreas [5, 6]: remained unchanged | Th1 (%) in pancreas ([5]; gavage 4 weeks from 10 weeks of age, cyclophosphamide after 2 weeks, individual values): 6.63% and 3.58% | Th1 (%) in pancreas, Average ([5]; gavage 4 weeks, cyclophosphamide after 2 weeks, P<0.05 vs vehicle (21.2)): 5.11* % | Th2 (%) in pancreas [5, 8]: 9.75% and 12.9% and 7.91% | Th17 (%) in pancreas [5, 8]: 3.28% and 0.68% and 1.19% | Tregs (%) in pancreas [5, 8]: 4.6% and 4.31% and 2.25% and 4.37% | Th17 (%) in pancreas, Average ([5]; gavage 4 weeks, cyclophosphamide after 2 weeks, vehicle 1.31): 1.72% | Tregs (%) in pancreas, Average ([5]; gavage 4 weeks, cyclophosphamide after 2 weeks, vehicle 4.345): 3.88% | Th2 (%) in pancreas, Average ([5]; gavage 4 weeks, cyclophosphamide after 2 weeks, vehicle 9.45): 10.19%
